Tested on: HT29 human colorectal adenocarcinoma cell line
Experiment: cell proliferation assay (Cell Titer-Glo luminescent cell viability assay)
Format: cell-based
Settings: HT-29, 72 h, read-out: pIC50 (converted)
Experimental: The cell culture and proliferation assay may be carried out as follows: the HT29 human colorectal adenocarcinoma cell line (ATCC, USA) was maintained in Dulbecco's Modified Eagle's Medium (Invitrogen, USA) supplemented with 10% fetal bovine serum (JRH, USA). The cell proliferation assay was carried out with the Cell Titer-Glo luminescent cell viability assay (Promega, USA) according to the manufacture's instruction after the 72 hr treatment of the cells in the presence of the compounds. The cell viability was shown as a percentage of DMSO treated cells.

Structure (SMILES)	IC50
CC(C)Oc1cc(C(=O)NC2CCN(C)CC2)ccc1Nc1ncc2c(n1)N(C1CCCC1)CC(C)(C)C(=O)N2C [Compound 122, 4-(9-cyclopentyl-5,7,7-trimethyl-6-oxo-6,7,8,9-tetrahydro-5H-pyrimido[4,5-b][1,4]diazepin-2-ylamino)-3-isopropoxy-N-(1-methylpiperidin-4-yl)benzamide]	> 10 nM

Same assay, conditions: HT-29, cell proliferative assay, HT29 cells, 72 hr treatment, values given as ranges, read-out: pIC50 (converted)

IC50	Structure (SMILES)
< 1 nM	CCOc1cc(C(=O)NC2CCN(C)CC2)ccc1Nc1ncc2c(n1)N(C1CCCC1)CC(C)(C)C(=O)N2C [Compound 123, 4-(9-cyclopentyl-5,7,7-trimethyl-6-oxo-6,7,8,9-tetrahydro-5H-pyrimido[4,5-b][1,4]diazepin-2-ylamino)-3-ethoxy-N-(1-methylpiperidin-4-yl)benzamide]
3.16 to 10 nM	COc1cc(C(=O)NC2CCCNCC2)ccc1Nc1ncc2c(n1)N(C1CCCCC1)CC(C)(C)C(=O)N2C (centres unmarked) [Compound 119, N-(azepan-4-yl)-4-(9-cyclohexyl-5,7,7-trimethyl-6-oxo-6,7,8,9-tetrahydro-5H-pyrimido[4,5-b][1,4]diazepin-2-ylamino)-3-methoxybenzamide]
< 1 nM	C=CC[C@H]1CN(C2CCCC2)c2nc(Nc3ccc(C(=O)NN4CCN(C)CC4)cc3OC)ncc2N(C)C1=O [Compound 206, (S)-4-(7-allyl-9-cyclopentyl-5-methyl-6-oxo-6,7,8,9-tetrahydro-5H-pyrimido[4,5-b][1,4]diazepin-2-ylamino)-3-methoxy-N-(4-methylpiperazin-1-yl)benzamide]
3.16 to 10 nM	COc1cc(C(=O)NC2CC(C)(C)N(C)C(C)(C)C2)ccc1Nc1ncc2c(n1)N(C1CCCC1)CCC(=O)N2C [Compound 80, 4-(9-cyclopentyl-5-methyl-6-oxo-6,7,8,9-tetrahydro-5H-pyrimido[4,5-b][1,4]diazepin-2-ylamino)-3-methoxy-N-(1,2,2,6,6-pentamethylpiperidin-4-yl)benzamide]
1 to 2.51 nM	COc1cc(C(=O)N[C@H]2CCCN(C)C2)ccc1Nc1ncc2c(n1)N(C1CCCC1)CC1(CC1)C(=O)N2C [Compound 164, (S)-4-(9′-cyclopentyl-5′-methyl-6′-oxo-5′,6′,8′,9′-tetrahydrospiro-[cyclopropane-1,7′-pyrimido[4,5-b][1,4]diazepine]-2′-ylamino)-3-methoxy-N-(1-methylpiperidin-3-yl)benzamide]
3.16 to 10 nM	C=CCC1CN(C2CCCCC2)c2nc(Nc3ccc(C(=O)NC4CN(C)C4)cc3OC)ncc2N(C)C1=O (centres unmarked) [Compound 225, 4-(7-allyl-9-cyclohexyl-5-methyl-6-oxo-6,7,8,9-tetrahydro-5H-pyrimido[4,5-b][1,4]diazepin-2-ylamino)-3-methoxy-N-(1-methylazetidin-3-yl)benzamide]
1 to 2.51 nM	COc1cc(C(=O)N[C@H]2CC[C@H](O)CC2)ccc1Nc1ncc2c(n1)N(C1CCCC1)CC(C)(C)C(=O)N2C [Compound 103, 4-(9-cyclopentyl-5,7,7-trimethyl-6-oxo-6,7,8,9-tetrahydro-5H-pyrimido[4,5-b][1,4]diazepin-2-ylamino)-N-((1R,4R)-4-hydroxycyclohexyl)-3-methoxybenzamide]
< 1 nM	COc1cc(C(=O)NN2CCN(C)CC2)ccc1Nc1ncc2c(n1)N(C1CCCCC1)CC1(CC1)C(=O)N2C [Compound 170, 4-(9′-cyclohexyl-5′-methyl-6′-oxo-5′,6′,8′,9′-tetrahydrospiro[cyclopropane-1,7′-pyrimido[4,5-b][1,4]diazepine]-2′-ylamino)-3-methoxy-N-(4-methylpiperazin-1-yl)benzamide]
1 to 2.51 nM	C=CC1(C)CN(C2CCCC2)c2nc(Nc3ccc(C(=O)N[C@H]4CCCNC4)cc3OC)ncc2N(C)C1=O (stereo partly drawn) [Compound 246, 4-(9-cyclopentyl-5,7-dimethyl-6-oxo-7-vinyl-6,7,8,9-tetrahydro-5H-pyrimido[4,5-b][1,4]diazepin-2-ylamino)-3-methoxy-N-((S)-piperidin-3-yl)benzamide]
> 10 nM	COc1cc(C(=O)N[C@H]2CCC(=O)NC2)ccc1Nc1ncc2c(n1)N(C1CCCC1)CCC(=O)N2C [Compound 48, (S)-4-(9-cyclopentyl-5-methyl-6-oxo-6,7,8,9-tetrahydro-5H-pyrimido[4,5-b][1,4]diazepin-2-ylamino)-3-methoxy-N-(6-oxopiperidin-3-yl)benzamide]
> 10 nM	CC[C@@]1(C)CN(C2CCCC2)c2nc(Nc3ccc(C(=O)NN4CCN(C)CC4)cc3OC)ncc2N(C)C1=O [Compound 133, (S)-4-(9-cyclopentyl-7-ethyl-5,7-dimethyl-6-oxo-6,7,8,9-tetrahydro-5H-pyrimido[4,5-b][1,4]diazepin-2-ylamino)-3-methoxy-N-(4-methylpiperazin-1-yl)benzamide]
3.16 to 10 nM	COc1cc(C(=O)N[C@@H]2CCCNC2)ccc1Nc1ncc2c(n1)N(C1CCCC1)CC1(CCC1)C(=O)N2C [Compound 181, (R)-4-(9′-cyclopentyl-5′-methyl-6′-oxo-5′,6′,8′,9′-tetrahydrospiro[cyclobutane-1,7′-pyrimido[4,5-b][1,4]diazepine]-2′-ylamino)-3-methoxy-N-(piperidin-3-yl)benzamide]
> 10 nM	COc1cc(C(=O)NC[C@H]2CCCN2)ccc1Nc1ncc2c(n1)N(C1CCCC1)CCC(=O)N2C [Compound 62, (R)-4-(9-cyclopentyl-5-methyl-6-oxo-6,7,8,9-tetrahydro-5H-pyrimido[4,5-b][1,4]diazepin-2-ylamino)-3-methoxy-N-(pyrrolidin-2-ylmethyl)benzamide]
1 to 2.51 nM	COc1cc(C(=O)NC2CCN(C)CC2)ccc1Nc1ncc2c(n1)N(C1CCCC1)CC1(CC1)C(=O)N2C [Compound 33, 4-(9′-cyclopentyl-5′-methyl-6′-oxo-5′,6′,8′,9′-tetrahydrospiro[cyclopropane-1,7′-pyrimido[4,5-b][1,4]diazepine]-2′-ylamino)-3-methoxy-N-(1-methylpiperidin-4-yl)benzamide]
3.16 to 10 nM	COc1cc(C(=O)NC2CN(C)C2)ccc1Nc1ncc2c(n1)N(C1CCCC1)CCC(=O)N2C [Compound 47, 4-(9-cyclopentyl-5-methyl-6-oxo-6,7,8,9-tetrahydro-5H-pyrimido[4,5-b][1,4]diazepin-2-ylamino)-3-methoxy-N-(1-methylazetidin-3-yl)benzamide]
> 10 nM	COc1cc(C(=O)NCCNC(C)=O)ccc1Nc1ncc2c(n1)N(C1CCCC1)CCC(=O)N2C [Compound 43, N-(2-acetamidoethyl)-4-(9-cyclopentyl-5-methyl-6-oxo-6,7,8,9-tetrahydro-5H-pyrimido[4,5-b][1,4]diazepin-2-ylamino)-3-methoxybenzamide]
< 1 nM	COc1cc(C(=O)NC2CCN(C)CC2)ccc1Nc1ncc2c(n1)N(C1CCCC1C)CC1(CC1)C(=O)N2C (centres unmarked) [Compound 177, 3-methoxy-4-(5′-methyl-9′-(2-methylcyclopentyl)-6′-oxo-5′,6′,8′,9′-tetrahydrospiro[cyclopropane-1,7′-pyrimido[4,5-b][1,4]diazepine]-2′-ylamino)-N-(1-methylpiperidin-4-yl)benzamide]
3.16 to 10 nM	COc1cc(C(=O)NC2CCN(S(C)(=O)=O)CC2)ccc1Nc1ncc2c(n1)N(C1CCCC1)CCC(=O)N2C [Compound 37, 4-(9-cyclopentyl-5-methyl-6-oxo-6,7,8,9-tetrahydro-5H-pyrimido[4,5-b][1,4]diazepin-2-ylamino)-3-methoxy N-(1-(methylsulfonyl)piperidin-4-yl)benzamide]
< 1 nM	C=CCC1CN(C2CCCCC2)c2nc(Nc3ccc(C(=O)N[C@H]4CCNC4)cc3OC)ncc2N(C)C1=O (stereo partly drawn) [Compound 194, 4-(7-allyl-9-cyclohexyl-5-methyl-6-oxo-6,7,8,9-tetrahydro-5H-pyrimido[4,5-b][1,4]diazepin-2-ylamino)-3-methoxy-N-((S)-pyrrolidin-3-yl)benzamide]
3.16 to 10 nM	COc1cc(C(=O)NC2CNC2)ccc1Nc1ncc2c(n1)N(C1CCCCC1)CC(C)(C)C(=O)N2C [Compound 118, N-(azetidin-3-yl)-4-(9-cyclohexyl-5,7,7-trimethyl-6-oxo-6,7,8,9-tetrahydro-5H-pyrimido[4,5-b][1,4]diazepin-2-ylamino)-3-methoxybenzamide]
3.16 to 10 nM	COc1cc(C(=O)NC2CN(C)C2)ccc1Nc1ncc2c(n1)N(C1CCC1)CC(C)(C)C(=O)N2C [Compound 154, 4-(9-cyclobutyl-5,7,7-trimethyl-6-oxo-6,7,8,9-tetrahydro-5H-pyrimido[4,5-b][1,4]diazepin-2-ylamino)-3-methoxy-N-(1-methylazetidin-3-yl)benzamide]
> 10 nM	COc1cc(C(=O)N[C@@H]2CCCN(C)C2)ccc1Nc1ncc2c(n1)N(C1CCCC1)CCC(=O)N2C [Compound 53, (R)-4-(9-cyclopentyl-5-methyl-6-oxo-6,7,8,9-tetrahydro-5H-pyrimido[4,5-b][1,4]diazepin-2-ylamino)-3-methoxy-N-(1-methylpiperidin-3-yl)benzamide]
3.16 to 10 nM	CC[C@]1(C)CN(C2CCCCC2)c2nc(Nc3ccc(C(=O)NC4CN(C)C4)cc3OC)ncc2N(C)C1=O [Compound 145, (R)-4-(9-cyclohexyl-7-ethyl-5,7-dimethyl-6-oxo-6,7,8,9-tetrahydro-5H-pyrimido[4,5-b][1,4]diazepin-2-ylamino)-3-methoxy-N-(1-methylazetidin-3-yl)benzamide]
< 1 nM	COc1cc(C(=O)NN2CCN(C)CC2)ccc1Nc1ncc2c(n1)N(C1CCCC1)CC(C)(C)C(=O)N2C [Compound 106, 4-(9-cyclopentyl-5,7,7-trimethyl-6-oxo-6,7,8,9-tetrahydro-5H-pyrimido[4,5-b][1,4]diazepin-2-ylamino)-3-methoxy-N-(4-methylpiperazin-1-yl)benzamide]
> 10 nM	COc1cc(C(=O)NC2CCN(C(=O)C3CC3)CC2)ccc1Nc1ncc2c(n1)N(C1CCCC1)CCC(=O)N2C [Compound 73]

— patent US20090291938A1 (TAKEDA PHARMACEUTICAL COMPANY LIMITED, priority 2007, published 2009)
